Experimental data reported in patent US20100256333A1, “Peptide-Based Beta Turn Mimetics” (UNIVERSITY OF MANITOBA, priority 2009, published 2010).
“And” between values parts separate entries of the source, which are not always exact repeats. Identical values can stand only once. Where a SMILES comes first, the peptide text is derived from it. [ ]: non-standard residue; d: D form.

Assays:
[1] = Prolyl amide cis/trans equilibrium of tetrapeptides by NMR in various solvents; type: physicochemical
Procedure: Conformational analysis of tetrapeptides 2-11 to 2-13 and 2-16 using NMR. […] The lower tendency of aggregation of glycosylated peptides has previously been reported (runkel et al., 1998). The NMR spectra of all tetrapeptides were measured at the same concentration (8 mM). Intramolecular hydrogen bonding was evaluated by temperature coefficient experiments in DMSO-d6 or H2O/D2O (9/1). Because exchangeable protons engaged in intramolecular hydrogen bonds are typically not influenced by strong hydrogen-bonding solvents (Kopple et al., 1969). The prolyl N-terminal geometry and turn structure were investigated by ROESY experiments (Misicka et al., 1998).
Solvent effects. In addition, the influence of different solvents on the geometry of prolyl N-terminus was studied (Table 14). […] In contrast, peptide 2-12 and reference peptide 2-16 display a solvent effect.

[2] = in CD2Cl2; cited from earlier work
[3] = Prolyl amide trans/cis ratio by 1H-NMR integration (peptide mimics 3-8); type: physicochemical; conditions: for Cis population of prolyl N-acetyl N′-methylamides / Experimental distribution of cis conformers / Experimental distribution of trans conformers: in D2O; for Cis population of prolyl N-acetyl N′-methylamides / cis % isomer: ±3%; for Experimental distribution of cis conformers / Experimental distribution of trans conformers: 1H-NMR integration; for Trans/cis ratio Kt/c / cis % isomer: in water, 500 MHz NMR at 25 °C; for Trans/cis ratio Kt/c: ±0.04
Procedure: For each compound 3-6, the ratio of trans/cis isomers was calculated by integrating and averaging as many well-resolved proton signals as possible in the ^1H-NMR spectra (Table 2) (taylor et al., 2003).
The cis population of peptide mimics 7 and 8 are presented in Table 3 together with previously published data for proline analog 9 (Beausoleil and Lubell, 1996), 5-methylproline analogs 10 and 11 (Delaney and Madison, 1982) and 5-tent-butylproline analogs 12 and 13 (Beausoleil and Lubell, 1996).
(§1) Thermodynamics. The equilibrium constants for the interconversion of the cis and trans isomers of 3-6 were determined by measuring the peak area of the 1H resonance for the two isomers. Peak areas were measured with the program Spinworks 2.5. Experiments were conducted at 298-360 K. Equilibrium constants (Kt/c=trans/cis ratios) were calculated directly from the peak areas.

[4] = Cis population and equilibrium constant Kc/t of GlcTProLysC peptide mimics by 1H NMR, pH effect; type: physicochemical; conditions: HCl salt; for Kc/t: D2O; for Equilibrium constant Kc/t / Cis population: in D2O; for Equilibrium constant Kc/t: ±0.04; for Cis population: ±3%
Procedure: The equilibrium constants Kc/t for compounds 3-22 to 3-25 are shown in Table 15 and were determined by integrating and averaging as many distinct proton signals as possible for both the major and minor isomers in the ^1H NMR spectra (Taylor et al., 2003). […] It appears that the stereochemistry at C-5′ has a profound effect on the equilibrium of isomerization. Also, the cis prolyl amide population in esters 3-22 and 3-23, was generally lower than N′-methylamides 3-24 and 3-25. Taylor and co-workers have proposed that the trans conformation of esters is stabilized relative to amides as a result of increased electron donation from the oxygen lone pair of the N-terminal amide carbonyl group to the antibonding orbital of the prolyl C-terminal carbonyl group (FIG. 20) (Taylor et al., 2003).
Effect of pH. Since compound 3-22 to 3-25 have an ionizable amino group, the inventors were interested to study the influence of the ionization state on Kt/c. […] The inventors selected three buffer ranges: pH=2.6, 7.4 and 12.4, to examine the pH effect on the isomerization of 3-24 and 3-25 (Table 16).
Measurement of equilibrium constant: The calculation was based on the integration of well-resolved peaks of the γ-protons, N-terminal methyl group and α-proton in ^1H NMR.

[5] = Kinetics of prolyl amide cis/trans isomerization by 1H-NMR inversion-magnetization transfer, Eyring plots; type: physicochemical; conditions: for Free energy of activation ΔG‡ cis to trans / Free energy of activation ΔG‡ trans to cis: at 298K, D2O; for Rate constant ktc (trans to cis): calculated from kct and Kt/c
Procedure: Kinetics of cis-trans prolyl amide bond isomerization in peptide mimics 3-6. The kinetics of cis/trans isomerization for compounds 3-6 were determined by ^1H-NMR spectroscopy inversion-magnetization transfer experiments (Perrin and Dwyer, 1990; Reimer et al., 1998) in D2O (Table 4). Because the rates for cis/trans isomerization are extremely slow in protic solvents, the inventors performed these experiments at elevated temperatures (Stein, 1993). At 83° C., the trans-to-cis rate constants of isomerizations (ktc) follows the order 4<5≈6<3. A 200-fold rate difference is observed for diastereomeric amides 3 and 4.
The effects of temperature on kct and ktc were analyzed by Eyring plots (FIG. 6) (Eyring, 1935). The values for ΔH^‡ and ΔS^‡ (Table 5) were calculated from linear least squares fits of the data in these plots (Eyring, 1935). […] However, the activation enthalpy is partially compensated by a higher activation entropy.
Inversion-magnetization transfer NMR experiments were performed on Bruker AMX500 spectrometer equipped with selective excitation units, and ^1H and broadband heteronuclear probes. Samples of 3-6 were prepared at a concentration of 0.01 M in D2O. The rate of prolyl peptide bond isomerization can not be detected by this method at room temperature. Experiments were therefore conducted at elevated temperature at 356 K. Temperature settings of the spectrometer were calibrated to within 1° C. by reference to a glycol standard.

[6] = Thermodynamics of isomerization, Kt/c versus temperature, Van't Hoff plots; type: physicochemical; conditions: D2O; for ΔG° (298K) of isomerization: in kcal/mol; for ΔH° of isomerization / ΔS° of isomerization: Van't Hoff plots
Procedure: Thermodynamics The effects of temperature on the values Kt/c=(kct/ktc) for each compound were measured directly by NMR spectroscopy over the temperature range 25-93° C. The resulting data were analyzed by Van't Hoff plots (FIG. 7). […] In this case the major cis isomer becomes increasingly favored as the temperature decreases. Values for ΔH^o and ΔS^o were calculated from linear least-squares fits of these plots (Table 6).
as §1

## CC(=O)N[C@@H](CC(C)C)C(=O)N[C@H](Cc1ccccc1)C(=O)N1CCC[C@H]1C(=O)N[C@H](C(=O)N(C)C)C(C)C [Compound 2-16, Ac-Leu-D-Phe-Pro-Val-NMe2] (Ac-L[dF]PV-NMe2)
[1]; CD2Cl2, 500 MHz NMR at 25° C.
  Equilibrium constant Kt/c: 19.00
[1]; CD3OD, 500 MHz NMR at 25° C.
  Equilibrium constant Kt/c: 3.17
[1]; DMSO-d6, 500 MHz NMR at 25° C.
  Equilibrium constant Kt/c: 1.32
[2]
  Concentration at which peptide aggregated: ≥ 10000 µM

## CNC(=O)C1N(C(C)=O)C(CO)CC12OC(CO)C(O)C(O)C2O [Compound 8, (1S)-2,3,4,6-tetrahydroxy-1′-N-acetyl-5′(R)-hydroxymethylene-spiro[1,5-anhydro-D-glucitol-1,3′-L-prolinemethylamide]]
[3]
  Cis population of prolyl N-acetyl N′-methylamides: 74% and 74±3%

## CNC(=O)C1N(C(C)=O)C(CO)CC12OC(CN)C(O)C(O)C2O.Cl [Compound 3-24, (1S)-6-Amino-6-deoxy-1′-N-acetyl-5′(R)-hydroxymethylene-spiro[1,5-anhydro-D-glucitol-1,3′-L-prolinemethyl amide] HCl salt]
[4]; pD 2.6, ±0.04
  Kc/t: 3.03
[4]; pD 7.4, ±0.04
  Kc/t: 3.03
[4]; pD 12.4, ±0.04
  Kc/t: 2.70
[4]
  Equilibrium constant Kc/t: 3.03
  Cis population: 75%

## COC(=O)C1N(C(C)=O)C(CO)CC12OC(CO)C(O)C(O)C2O [Compound 3, (1S)-2,3,4,6-Tetrahydroxy-1′-N-acetyl-5′(S)-hydroxymethylene-spiro[1,5-anhydro-D-glucitol-1,3′-L-prolinemethyl ester]]
[3]
  Experimental distribution of cis conformers: 23±3%
  Experimental distribution of trans conformers: 77 ± 3%
  Trans/cis ratio Kt/c: 3.35
  cis % isomer: 23%
[5]; D2O at 83 °C
  Rate constant kct (cis to trans): 0.18 ± 0.01 s⁻¹
  Rate constant ktc (trans to cis): 0.08 ± 0.004 s⁻¹
[5]; Eyring plots in D2O
  Activation enthalpy ΔH‡ cis to trans: 109 kJ/mol
  Activation enthalpy ΔH‡ trans to cis: 110 kJ/mol
  Activation entropy ΔS‡ cis to trans: 11.1 cal/mol.K
  Activation entropy ΔS‡ trans to cis: 10.2 cal/mol.K
  Increase in activation enthalpy compared to compounds 4-6: 16.3 to 28.5 kJ/mol
[5]
  Free energy of activation ΔG‡ cis to trans: 95.4 kJ/mol
  Free energy of activation ΔG‡ trans to cis: 97.9 kJ/mol
[6]
  ΔG° (298K) of isomerization: −0.80 ± 0.13
  ΔH° of isomerization: -6.99 ± 0.25 kJ/mol
  ΔS° of isomerization: −2.93 ± 0.20 cal/mol•K

## COC(=O)C1N(C(C)=O)C(CO)CC12OC(CN)C(O)C(O)C2O.Cl [Compound 3-22, (1S)-6-Amino-6-deoxy-1′-N-acetyl-5′(R)-hydroxymethylene-spiro[1,5-anhydro-D-glucitol-1,3′-L-prolinemethyl ester] HCl salt]
[4]
  Equilibrium constant Kc/t: 1.22
  Cis population: 55%

## CNC(=O)C1N(C(C)=O)C(CO)CC12OC(CO)C(O)C(O)C2O [Compound 7, (1S)-2,3,4,6-Tetrahydroxy-1′-N-acetyl-5′(S)-hydroxymethylene-spiro[1,5-anhydro-D-glucitol-1,3′-L-prolinemethylamide]]
[3]
  Cis population of prolyl N-acetyl N′-methylamides: 38% and 38±3%

## COC(=O)[C@@H]1[C@@H](O)CCN1C(C)=O [Compound 5, N-acetyl-3(S)-hydroxy-L-proline methyl ester, reference compound]
[3]
  Trans/cis ratio Kt/c: 4.88
  cis % isomer: 17%
[5]; D2O at 83 °C
  Rate constant kct (cis to trans): 2.63 ± 0.28 s⁻¹
  Rate constant ktc (trans to cis): 1.02 ± 0.09 s⁻¹
[5]; Eyring plots in D2O
  Activation enthalpy ΔH‡ cis to trans: 90.4 kJ/mol
  Activation enthalpy ΔH‡ trans to cis: 90 kJ/mol
  Activation entropy ΔS‡ cis to trans: 3.6 cal/mol.K
  Activation entropy ΔS‡ trans to cis: 1.6 cal/mol.K
[5]
  Free energy of activation ΔG‡ cis to trans: 85.8 kJ/mol
  Free energy of activation ΔG‡ trans to cis: 88.3 kJ/mol
[6]
  ΔG° (298K) of isomerization: −0.95 ± 0.05
  ΔH° of isomerization: -4.56 ± 0.13 kJ/mol
  ΔS° of isomerization: −0.48 ± 0.08 cal/mol•K

## CNC(=O)C1N(C(C)=O)C(CO)CC12OC(CN)C(O)C(O)C2O.Cl [Compound 3-25, (1S)-6-Amino-6-deoxy-1′-N-acetyl-5′(S)-hydroxymethylene-spiro[1,5-anhydro-D-glucitol-1,3′-L-prolinemethyl amide] HCl salt]
[4]; pD 2.6, ±0.04
  Kc/t: 0.61
[4]; pD 7.4, ±0.04
  Kc/t: 0.56
[4]; pD 12.4, ±0.04
  Kc/t: 0.61
[4]
  Equilibrium constant Kc/t: 0.56
  Cis population: 36%

## COC(=O)[C@@H]1CCCN1C(C)=O [Compound 6, N-acetyl-L-proline methyl ester, reference compound]
[3]
  Trans/cis ratio Kt/c: 6.14
  cis % isomer: 14%
[5]; D2O at 83 °C
  Rate constant kct (cis to trans): 2.95 ± 0.12 s⁻¹
  Rate constant ktc (trans to cis): 0.82 ± 0.04 s⁻¹
[5]; Eyring plots in D2O
  Activation enthalpy ΔH‡ cis to trans: 91.6 kJ/mol
  Activation enthalpy ΔH‡ trans to cis: 94.1 kJ/mol
  Activation entropy ΔS‡ cis to trans: 4.8 cal/mol.K
  Activation entropy ΔS‡ trans to cis: 3.9 cal/mol.K
[5]
  Free energy of activation ΔG‡ cis to trans: 85.8 kJ/mol
  Free energy of activation ΔG‡ trans to cis: 89.5 kJ/mol
[6]
  ΔG° (298K) of isomerization: −1.01 ± 0.08
  ΔH° of isomerization: -5.06 ± 0.17 kJ/mol
  ΔS° of isomerization: −0.71 ± 0.12 cal/mol•K

## COC(=O)C1N(C(C)=O)C(CO)CC12OC(CO)C(O)C(O)C2O [Compound 4, (1S)-2,3,4,6-Tetrahydroxy-1′-N-acetyl-5′(R)-hydroxymethylene-spiro[1,5-anhydro-D-glucitol-1,3′-L-prolinemethyl ester]]
[3]
  Experimental distribution of cis conformers: 53±3%
  Experimental distribution of trans conformers: 47 ± 3%
  Trans/cis ratio Kt/c: 0.88
  cis % isomer: 53%
[5]; D2O at 83 °C
  Rate acceleration for kct compared to parent compounds 5 and 6: ~6 fold
  Rate acceleration for ktc compared to parent compounds 5 and 6: ~20 fold
  Rate constant kct (cis to trans): 16.19 ± 1.19 s⁻¹
  Rate constant ktc (trans to cis): 19.82 ± 1.45 s⁻¹
[5]; Eyring plots in D2O
  Activation enthalpy ΔH‡ cis to trans: 82.8 kJ/mol
  Activation enthalpy ΔH‡ trans to cis: 82 kJ/mol
  Activation entropy ΔS‡ cis to trans: 2.2 cal/mol.K
  Activation entropy ΔS‡ trans to cis: 1.9 cal/mol.K
[5]
  Free energy of activation ΔG‡ cis to trans: 79.9 kJ/mol
  Free energy of activation ΔG‡ trans to cis: 79.5 kJ/mol
[6]
  ΔG° (298K) of isomerization: 0.19 ± 0.11
  ΔH° of isomerization: 2.09 ± 0.25 kJ/mol
  ΔS° of isomerization: 1.05 ± 0.16 cal/mol•K

## COC(=O)C1N(C(C)=O)C(CO)CC12OC(CN)C(O)C(O)C2O.Cl [Compound 3-23, (1S)-6-Amino-6-deoxy-1′-N-acetyl-5′(S)-hydroxymethylene-spiro[1,5-anhydro-D-glucitol-1,3′-L-prolinemethyl ester] HCl salt]
[4]
  Equilibrium constant Kc/t: 0.23
  Cis population: 19%
